Laboratory results: publication PMC3927067 (Journal of Computer-Aided Molecular Design, 2014)
Where “and” joins values, the source holds several entries; their conditions need not be identical. Equal entries are not always repeated. Where two headings read alike, the source gives them in different places.

Experiments:
hOX1R = target: T1, hOX1R (Homo sapiens, UniProt O43613); test: Orexin 1 receptor binding assay
T1 sequence (O43613 1-425): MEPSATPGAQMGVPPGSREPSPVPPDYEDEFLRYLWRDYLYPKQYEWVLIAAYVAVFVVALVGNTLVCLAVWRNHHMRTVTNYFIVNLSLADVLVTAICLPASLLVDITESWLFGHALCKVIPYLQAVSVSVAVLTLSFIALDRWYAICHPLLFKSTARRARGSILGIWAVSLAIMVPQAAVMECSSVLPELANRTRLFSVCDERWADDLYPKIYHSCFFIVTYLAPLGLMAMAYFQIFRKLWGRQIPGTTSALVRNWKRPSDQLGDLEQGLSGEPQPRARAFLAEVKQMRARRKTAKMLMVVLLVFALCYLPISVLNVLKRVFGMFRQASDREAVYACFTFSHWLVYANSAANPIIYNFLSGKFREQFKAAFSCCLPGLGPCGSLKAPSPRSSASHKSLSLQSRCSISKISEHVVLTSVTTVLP

hOX2R = target: T2, hOX2R (Homo sapiens, UniProt O43614); test: Orexin 2 receptor binding assay
T2 sequence (O43614 1-444): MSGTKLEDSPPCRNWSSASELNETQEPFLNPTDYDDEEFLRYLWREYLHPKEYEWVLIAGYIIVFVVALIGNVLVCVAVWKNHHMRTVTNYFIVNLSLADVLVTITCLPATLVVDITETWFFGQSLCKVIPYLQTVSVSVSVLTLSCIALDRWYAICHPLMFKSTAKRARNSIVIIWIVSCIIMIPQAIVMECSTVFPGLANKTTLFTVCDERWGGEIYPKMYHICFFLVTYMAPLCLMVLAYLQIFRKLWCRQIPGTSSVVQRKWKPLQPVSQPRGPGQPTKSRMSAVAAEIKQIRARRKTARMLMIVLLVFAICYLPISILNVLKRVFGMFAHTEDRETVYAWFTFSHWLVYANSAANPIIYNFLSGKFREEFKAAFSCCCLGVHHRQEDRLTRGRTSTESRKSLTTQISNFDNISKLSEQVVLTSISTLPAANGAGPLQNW

[1] = NMR solution conformation (NOE); assay type: physicochemical; details: CD3OD at −40 °C
Excerpt: Although the molecular and quantum mechanical methods were in agreement with one another, we sought additional experimental methods to either support or refute our initial computational findings. We first determined the unbound, small-molecule crystal structure. The RMSD between the computationally derived conformation depicted in Fig. 1 and the X-ray structure was 0.75 Å (non-hydrogen atoms). Additionally, no differences between the geometries of the nitrogen atoms of the seven-membered ring nor the amide bond were observed between the theoretically and experimentally derived conformations. Even though there was no computed difference between the conformations (Table 1) when implicit solvent was invoked, we sought to experimentally confirm that the solution state conformation was consistent with the aforementioned theoretical and crystal structure experiments. There was again excellent agreement from NMR spectroscopy applied to compound 1, with NOE evidence for the F2F interaction in the major rotamer. In fact, two F2F rotamers in the ensemble accounted for 82 % of the total solution conformation (CD3OD at −40 °C), each with a motif similar to that found by computational analysis and X-ray structure.

[2] = design: method as in PMID 20565075; details: cited from earlier work
[3] = cited from earlier work
preclinical species = test: In vivo sleep promotion
[4] = Brain/plasma ratio, iv infusion study; details: rat
[5] = mean of replicates, read-out: OX1R Ki
[6] = supplement, individual replicates, Ki and nM taken from Table 3, read-out: OX1R individual replicate
[7] = supplement, unlabelled mean below the replicates, Ki and nM taken from b8/Table 3, read-out: OX1R mean of replicates
[8] = mean of replicates, read-out: OX2R Ki
[9] = supplement, individual replicates, Ki and nM taken from Table 3, read-out: OX2R individual replicate
[10] = supplement, unlabelled mean below the replicates, Ki and nM taken from b8/Table 3, read-out: OX2R mean of replicates

SMILES | Ki (hOX1R; [5]) [nM] | Ki (hOX1R; [6]) | Ki (hOX1R; [7]) [nM] | Ki (hOX2R; [8]) [nM] | Ki (hOX2R; [9]) | share of two F2F rotamers in total solution conformation [1] [%] | Ki (hOX2R; [10]) [nM] | times less active than compound 4 (hOX1R; binding, relative to compound 4, receptor not specified) | in vivo activity [2] | metabolic liability [3] | sleep promotion in vivo (preclinical species) | metabolic issues ([3]; benzoxazole replacing quinazoline ring) | toxicology profile (Toxicology profile) | Kp ([4]; brain and plasma, iv) | CNS penetration ([4]; iv infusion study)
Cc1ccc(-n2nccn2)c(C(=O)N2CCCN(c3ncc4ccccc4n3)CC2)c1 [Compound 1] | 1.2 | 2.2 nM and 0.71 nM and 0.58 nM and 1.3 nM and 0.94 nM and 0.62 nM and 0.54 nM and 2.4 nM and 1.4 nM | 1.2 | 0.8 | 0.773 nM and 0.86 nM and 1.01 nM and 0.775 nM and 0.811 nM and 0.65 nM and 0.64 nM and 0.61 nM and 0.57 nM and 0.606 nM and 0.41 nM and 0.72 nM and 0.754 nM and 0.866 nM and 0.905 nM and 0.731 nM and 1.31 nM and 0.954 nM and 0.71 nM | 82 | – | – | – | – | – | – | – | – | –
O=C(c1cc(Cl)ccc1-n1nccn1)N1CC2CC(C1)N(c1ncc3cc(F)ccc3n1)C2 (stereo not drawn) [Compound 4] | 0.4 | 0.43 nM and 0.42 nM | 0.425 | 0.6 | 0.66 nM and 0.57 nM | – | 0.615 | – | – | – | – | – | – | – | –
Cc1ccc(-n2nccn2)c(C(=O)N2CC3CC2CCN3c2ncc3cc(F)ccc3n2)c1 (stereo not drawn) [Compound 5] | > 1700 | – | – | 2740 | 2800 nM and 2280 nM and 3150 nM | – | 2740 | > 1,000 times | – | – | – | – | – | – | –
C[C@@H]1CCN(c2ncc3cc(F)ccc3n2)CCN1C(=O)c1cc(Cl)ccc1-n1nccn1 [Compound 6] | 0.6 | 0.9 nM and 0.31 nM | 0.605 | 0.2 | 0.19 nM and 0.11 nM | – | 0.15 | – | excellent in vivo activity | metabolic liability | – | – | – | – | –
Cc1ccc(-n2nccn2)c(C(=O)N2CCN(c3nc4cc(Cl)ccc4o3)CC[C@H]2C)c1 [Compound 7, Suvorexant] | – | – | – | – | – | – | – | – | – | – | promote sleep in preclinical species in a dose dependent fashion | devoid of the metabolic issues | favorable toxicology profile | 0.6 to 1.2 | CNS penetrant
